From US20230276817A1, “PREPARATION AND METHOD FOR IMPROVING RiNG ROT RESISTANCE OF APPLE FRUITS” (Shandong Institute of Pomology, priority 2022, published 2023)

Legend:
Assay type in all cases: in vivo
Botryosphaeria dothidea [1] = assay: In-vitro inoculation of sorbitol-soaked mature "Red delicious" apple fruits with ring rot fungus
Protocol: (§1) A fungus block of Botrvosphaeria dothidea was inoculated in a potato dextrose agar (PDA) medium by a puncher having a diameter of 5 mm, and inverted and cultured in the dark at 28° C. for 10 days.
S21: An in-vitro inoculation method was adopted for identifying disease resistance of the “Red delicious” apple fruits; and 6 treatments were set as follows:
S22: Surfaces of mature “Red delicious” fruits (within 140 days after flowering) were disinfected with 0.1% of sodium hypochlorite; and the fruits were fully washed with sterilized deionized water, aired and stood at 25° C. for 12 h for later use.
S23: The “Red delicious” fruits of the same size were selected and respectively soaked in the sterilized deionized water, the sorbitol solution of 100 mM, the sorbitol solution of 150 mM, the sorbitol solution of 200 mM and the sorbitol solution of 300 mM; and 10 fruits were treated in each treatment. The apples were taken out within 3 h after treatment; surface liquid was wiped up; middle parts of the surfaces of the apple fruits were punctured by sterilized toothpicks at a depth of 5 mm: 0.02 g of Botryosphaeria. dothidea hyphae having vigorous and consistent growth within 10 days was added into the punctured parts; and the single pathogenic fungus inoculation treatment was taken as control. After inoculation, the “Red delicious” fruits were cultured in a thermostatic incubator at 28° C. in the dark. A disease spot diameter served as a measurement standard of the incidence degree of the apple fruits; diameters of 5 points of each disease spot were measured; and the mean value was taken as the result. Since 3 d after treatment, disease spot diameters of the apple fruits in different treatments were photographed and recorded every day; and the diameters were continuously recorded for 4 d. A significance level of disease spot size differences among the treatment groups was calculated according to analysis of variance.

Botryosphaeria dothidea [2] = assay: In-vitro inoculation of sorbitol-soaked mature "Fuji" apple fruits with ring rot fungus
Protocol: as §1
S31: An in-vitro inoculation method was adopted for identifying disease resistance of the “Fuji” apple fruits; and 6 treatments were set as follows:
S32: Surfaces of mature “Fuji” fruits (within 180 days after flowering) were disinfected with 0.1% of sodium hypochlorite; and the fruits were fully washed with sterilized deionized water, aired and stood at 25° C. for 12 h for later use.
S33: The “Fuji” fruits of the same size were selected and respectively soaked in the sterilized deionized water, the sorbitol solution of 100 mM, the sorbitol solution of 150 mM, the sorbitol solution of 200 mM and the sorbitol solution of 300 mM; and 10 fruits were treated in each treatment. The apples were taken out within 3 h after treatment; surface liquid was wiped up; middle parts of the surfaces of the apple fruits were punctured by sterilized toothpicks at a depth of 5 mm; 0.02 g of Botryosphaeria dothidea hyphae having vigorous and consistent growth within 10 days was added into the punctured parts; and the single pathogenic fungus inoculation treatment was taken as control. After inoculation, the “Fuji” fruits were cultured in a thermostatic incubator at 28° C. in the dark. A disease spot diameter served as a measurement standard of the incidence degree of the apple fruits; diameters of 5 points of each disease spot were measured; and the mean value was taken as the result. Since 3 d after treatment, disease spot diameters of the apple fruits in different treatments were photographed and recorded every day; and the diameters were continuously recorded for 4 d. A significance level of disease spot size differences among the treatment groups was calculated according to analysis of variance.

Botryosphaeria dothidea [3] = assay: In-vitro inoculation of sorbitol-soaked mature "Gala" apple fruits with ring rot fungus
Protocol: as §1
S41: An in-vitro inoculation method was adopted for identifying disease resistance of the “Gala” apple fruits, and 6 treatments were set as follows:
S42: Surfaces of mature “Gala” fruits (within 120 days after flowering) were disinfected with 0.1% of sodium hypochlorite; and the fruits were fully washed with sterilized deionized water, aired and stood at 25° C. for 12 h for later use.
S43: The “Gala” fruits of the same size were selected and respectively soaked in the sterilized deionized water, the sorbitol solution of 100 mM, the sorbitol solution of 150 mM, the sorbitol solution of 200 mM and the sorbitol solution of 300 mM; and 10 fruits were treated in each treatment. The apples were taken out within 3 h after treatment; surface liquid was wiped up; middle parts of the surfaces of the apple fruits were punctured by sterilized toothpicks at a depth of 5 mm; 0.02 g of Botryosphaeria dothidea hyphae having vigorous and consistent growth within 10 days was added into the punctured parts; and the single pathogenic fungus inoculation treatment was taken as control. After inoculation, the “Gala” fruits were cultured in a thermostatic incubator at 28° C. in the dark. A disease spot diameter served as a measurement standard of the incidence degree of the apple fruits; diameters of 5 points of each disease spot were measured; and the mean value was taken as the result. Since 3 d after treatment, disease spot diameters of the apple fruits in different treatments were photographed and recorded every day; and the diameters were continuously recorded for 4 d. A significance level of disease spot size differences among the treatment groups was calculated according to analysis of variance.

Botryosphaeria dothidea [4] = assay: In-vitro inoculation of sorbitol-soaked mature "Golden delicious" apple fruits with ring rot fungus
Protocol: as §1
S51: An in-vitro inoculation method was adopted for identifying disease resistance of the “Golden delicious” apple fruits; and 6 treatments were set as follows:
S52: Surfaces of mature “Golden delicious” fruits (within 135 days after flowering) were disinfected with 0.1% of sodium hypochlorite; and the fruits were fully washed with sterilized deionized water, aired and stood at 25° C. for 12 h for later use.
S53: The “Golden delicious” fruits of the same size were selected and respectively soaked in the sterilized deionized water, the sorbitol solution of 100 mM, the sorbitol solution of 150 mM, the sorbitol solution of 200 mM and the sorbitol solution of 300 mM; and 10 fruits were treated in each treatment. The apples were taken out within 3 h after treatment; surface liquid was wiped up; middle parts of the surfaces of the apple fruits were punctured by sterilized toothpicks at a depth of 5 mm; 0.02 g of Botryosphaeria dothidea hyphae having vigorous and consistent growth within 10 days was added into the punctured parts; and the single pathogenic fungus inoculation treatment was taken as control. After inoculation, the “Golden delicious” fruits were cultured in a thermostatic incubator at 28° C. in the dark. A disease spot diameter served as a measurement standard of the incidence degree of the apple fruits; diameters of 5 points of each disease spot were measured; and the mean value was taken as the result. Since 3 d after treatment, disease spot diameters of the apple fruits in different treatments were photographed and recorded every day; and the diameters were continuously recorded for 4 d. A significance level of disease spot size differences among the treatment groups was calculated according to analysis of variance.

[5] = sorbitol solution of 200 mM, soak 3 h, 6 d after inoculation
[6] = sorbitol solution of 300 mM, 6 d after inoculation
[7] = sorbitol solution soak 3 h, 3-6 d after inoculation

OC[C@@H](O)[C@@H](O)[C@H](O)[C@@H](O)CO [sorbitol, D-Sorbitol]
optimum treatment concentration (Botryosphaeria dothidea [1]): 200 mM
disease spot diameter (Botryosphaeria dothidea [1]; [5]): 0.76 cm
disease spot diameter versus 200 mM treatment (Botryosphaeria dothidea [1]; [6]): no significant difference
increase rate of the disease spot diameters compared with the control (Botryosphaeria dothidea [1]; [7]): significantly decreased
optimum treatment concentration (Botryosphaeria dothidea [2]): 150 mM
disease spot diameter (Botryosphaeria dothidea [2]; sorbitol solution of 150 mM, soak 3 h, 6 d after inoculation): 1.86 cm
disease spot diameter versus 150 mM treatment (Botryosphaeria dothidea [2]; sorbitol solution of 200 mM, 6 d after inoculation): no significant difference
disease spot diameter versus 150 mM treatment (Botryosphaeria dothidea [2]; [6]): no significant difference
increase rate of the disease spot diameters compared with the control (Botryosphaeria dothidea [2]; [7]): significantly decreased
optimum treatment concentration (Botryosphaeria dothidea [3]): 200 mM
average disease spot diameter (Botryosphaeria dothidea [3]; [5]): 1.89 cm
disease spot diameter versus 200 mM treatment (Botryosphaeria dothidea [3]; [6]): no significant difference
increase rate of the disease spot diameters compared with the control (Botryosphaeria dothidea [3]; [7]): significantly decreased
optimum treatment concentration (Botryosphaeria dothidea [4]): 200 mM
average disease spot diameter (Botryosphaeria dothidea [4]; [5]): 1.70 cm
disease spot diameter versus 200 mM treatment (Botryosphaeria dothidea [4]; [6]): no significant difference
increase rate of the disease spot diameters compared with the control (Botryosphaeria dothidea [4]; [7]): significantly decreased
